Here are results for two compounds from publication PMC8228075, “In Vitro and In Silico Characterization of G-Protein Coupled Receptor (GPCR) Targets of Phlorofucofuroeckol-A and Dieckol” (Marine Drugs, 2021).

Common to all, as to assay type: cell-based
Test [1] has as its target T1, Alpha-2A adrenergic receptor (hα2AAR) (Homo sapiens, UniProt P08913).
T1 construct: host or cells: rat basophil leukemia cells
T1 sequence (P08913 1-465): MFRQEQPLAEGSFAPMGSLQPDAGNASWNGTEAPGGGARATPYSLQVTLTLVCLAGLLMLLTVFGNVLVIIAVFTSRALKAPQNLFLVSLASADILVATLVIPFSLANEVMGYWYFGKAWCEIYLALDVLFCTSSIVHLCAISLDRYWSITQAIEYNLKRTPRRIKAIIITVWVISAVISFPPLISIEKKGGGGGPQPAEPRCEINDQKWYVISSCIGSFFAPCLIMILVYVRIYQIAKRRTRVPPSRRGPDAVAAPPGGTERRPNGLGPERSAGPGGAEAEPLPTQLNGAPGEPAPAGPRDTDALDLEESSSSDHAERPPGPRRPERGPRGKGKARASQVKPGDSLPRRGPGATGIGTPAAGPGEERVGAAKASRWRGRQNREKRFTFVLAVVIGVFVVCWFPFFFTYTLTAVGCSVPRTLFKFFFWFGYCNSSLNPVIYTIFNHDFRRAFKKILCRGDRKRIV
Nature of the test: hα2AAR functional agonist assay (Ca2+ mobilization, rat basophil leukemia cells). As to conditions: 100 µM; % of control response to 0.1 µM epinephrine bitartrate. The source says: (§1) The in-house assay protocol and experimental conditions are reported in our previous reports. The functional effect of dieckol and PFF-A was characterized based on their modulation effect on cytosolic Ca^2+ ion mobilization using a fluorimetric detection method or by measuring their effect on cAMP modulation using homogeneous time-resolved fluorescence (HTRF) detection.
The rat basophil leukemia cells were distributed in microplates at a density of 1.1 × 10^4 cells/well after suspending in a HBSS buffer (Invitrogen) containing 20 mM HEPES. Then, the fluorescent probe (Fluo8, AAT Bioquest) mixed with probenecid in HBSS buffer (Invitrogen) complemented with 20 mM Hepes (Millipore) (pH 7.4) was added into each well incubated for 60 min at 30 °C. Thereafter, the assay plates were positioned in a microplate reader (FlipR Tetra, Molecular Device) and we added test compounds, reference agonist/antagonist or HBSS buffer (basal control). Change in fluorescence intensity which varies proportionally to the free cytosolic Ca^2+ ion concentration was measured.
For orientation: A change in cytosolic calcium serves as a functional read-out for many receptors and channels.

The target of test [2] is T2, δ-opioid receptor (hδ-OPR) (Homo sapiens, UniProt P41143).
T2 construct: host or cells: rat basophil leukemia cells
T2 sequence (P41143 whole entry): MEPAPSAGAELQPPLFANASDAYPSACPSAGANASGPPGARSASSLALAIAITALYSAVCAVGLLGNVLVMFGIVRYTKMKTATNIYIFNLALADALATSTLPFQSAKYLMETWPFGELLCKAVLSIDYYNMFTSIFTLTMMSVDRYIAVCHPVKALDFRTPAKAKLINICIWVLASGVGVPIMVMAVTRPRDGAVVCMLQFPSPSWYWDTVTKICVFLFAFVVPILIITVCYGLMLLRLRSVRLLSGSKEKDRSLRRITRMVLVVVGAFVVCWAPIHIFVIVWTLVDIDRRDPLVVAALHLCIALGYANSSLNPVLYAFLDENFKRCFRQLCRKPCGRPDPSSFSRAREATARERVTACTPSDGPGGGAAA
Nature of the test: hδ-OPR functional agonist assay (Ca2+ mobilization, rat basophil leukemia cells). Particulars: 100 µM; % of control response to 1 µM DPDPE.
From the text: as §1
(§2) Thereafter, a mixture of fluorescent probe (Fluo8, AAT Bioquest) and probenecid in HBSS buffer (Invitrogen) complemented with 20 mM Hepes (Millipore) (pH 7.4) was added and plates were incubated for 60 min at 30 °C. Then, the assay plates were positioned in a FlipR Tetra microplate reader (Molecular Device, San Jose, CA, USA) for the addition of the test compound, reference agonist/antagonist, or HBSS buffer (basal control). Change in fluorescence intensity that varies proportionally to the free cytosolic Ca^2+ ion concentration was measured.

Test [3] has as its target T2, δ-opioid receptor (hδ-OPR). As to the kind of experiment: hδ-OPR functional antagonist assay (Ca2+ mobilization, rat basophil leukemia cells). As to conditions: for Antagonist Effect: 50 µM; for IC50: antagonist effect, mean ± SD, n = 3; for inhibition at 150 µM: read-out: Antagonist Effect, 150 µM.
From the text: as §1, §2

In test [4] the target is T3, Glucagon-like peptide-1 receptor (GLP-1) (Mus musculus, UniProt O35659).
T3 construct: mouse GLP-1 receptor-expressed βTC6 cells; host or cells: βTC6 cells
T3 sequence (O35659 22-463): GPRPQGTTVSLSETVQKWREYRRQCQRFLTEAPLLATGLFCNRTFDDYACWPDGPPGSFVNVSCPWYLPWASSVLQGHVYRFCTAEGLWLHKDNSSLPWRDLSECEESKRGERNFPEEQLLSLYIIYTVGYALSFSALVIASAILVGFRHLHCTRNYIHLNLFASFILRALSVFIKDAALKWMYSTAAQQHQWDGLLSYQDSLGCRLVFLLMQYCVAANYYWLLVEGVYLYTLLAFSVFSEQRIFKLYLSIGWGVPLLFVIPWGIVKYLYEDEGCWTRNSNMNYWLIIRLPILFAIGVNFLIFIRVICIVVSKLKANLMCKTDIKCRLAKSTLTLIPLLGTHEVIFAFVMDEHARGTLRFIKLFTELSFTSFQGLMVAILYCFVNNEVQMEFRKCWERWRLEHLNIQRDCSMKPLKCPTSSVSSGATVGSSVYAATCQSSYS
As to the kind of experiment: GLP-1R functional agonist assay (cAMP, HTRF, βTC6 cells). As to conditions: 100 µM; % of control response to 100 nM GLP-1(7–37). As for the experimental part:
as §1
Functional activity of phlorotannins over hA2AR, hα2CAR, hCB1R, GLP-1R, and h5-HT1BR was determined by measuring their effects on cAMP production by the HTRF detection method using transected cells expressing human cloned receptors.
The HBSS buffer (Invitrogen) complemented with 20 mM HEPES (pH 7.4) and 500 µM IBMX was used to suspend and distribute the βTC6 cells at a density of 1.5x10^4 cells/well. The plate was then incubated for 10 min at RT in the presence of HBSS (basal and stimulated control), the test compound, or the reference agonist and antagonist. […] Following incubation, the cells were lysed and the fluorescence acceptor (D2-labeled cAMP) and fluorescence donor (anti-cAMP antibody labeled with europium cryptate) were added.
Background: TR-FRET usually uses a lanthanide donor and a delayed reading to cut background.

For the next test, the target named is T4, h5-HT1AR (Homo sapiens, UniProt P08908).
T4 construct: host or cells: Ba/F3-5HT1AR cells
T4 sequence (P08908 1-422): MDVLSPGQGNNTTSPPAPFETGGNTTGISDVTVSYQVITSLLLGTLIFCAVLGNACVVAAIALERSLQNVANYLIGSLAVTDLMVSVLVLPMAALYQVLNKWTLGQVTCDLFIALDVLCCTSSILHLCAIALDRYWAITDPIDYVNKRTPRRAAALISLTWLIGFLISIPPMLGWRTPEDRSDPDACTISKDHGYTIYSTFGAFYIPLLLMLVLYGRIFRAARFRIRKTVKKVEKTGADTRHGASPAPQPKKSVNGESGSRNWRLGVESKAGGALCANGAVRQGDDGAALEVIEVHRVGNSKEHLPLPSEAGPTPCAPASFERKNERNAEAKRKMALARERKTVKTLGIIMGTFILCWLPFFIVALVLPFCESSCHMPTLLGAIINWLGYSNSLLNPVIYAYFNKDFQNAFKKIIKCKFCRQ
As to the kind of experiment: h5-HT1AR functional antagonist assay (Ca2+ mobilization, Ba/F3 cells). Particulars: for Antagonist Effect: 50 µM, % inhibition of control response to 30 nM serotonin; for IC50: antagonist effect, mean ± SD, n = 3. As for the experimental part: as §1
In brief, Ba/F3-5HT1AR cells were first suspended in HBSS buffer (Invitrogen, Carlsbad, CA, USA) complemented with 20 mM HEPES buffer (pH 7.4). Then, the cells were distributed into microplates at a density of 1 × 10^6 cells/well. Subsequently, fluorescent probe (Fluo8, AAT Bioquest) mixed with probenecid in HBSS buffer (Invitrogen, Carlsbad, CA, USA) supplemented with 20 mM HEPES (Invitrogen) (pH 7.4) was added to each well, and the plates were incubated for 60 min at 37 °C. […] Fluorescence intensity was measured which varied in proportion to the free cytosolic Ca^2+ ion concentration.

Where [5] appears, read: % inhibition of control response to 25 nM DPDPE.
Where [6] appears, read: BaF3, read-out: Antagonist Effect.

Turning to `Oc1cc(O)cc(Oc2c(O)cc(O)c3c2Oc2c(O)cc(Oc4c(O)cc(Oc5c(O)cc(O)c6c5Oc5c(O)cc(O)cc5O6)cc4O)cc2O3)c1` [Dieckol, dieckol], the “Agonist Effect” value is given as 13.4 ± 19.87% in test [1], −5.7 ± 0.14% in test [2] and −16.3 ± 1.13% in test [4]. Besides, the “Antagonist Effect” value in test [3] (setting [5]) stood at 23.23 ± 4.04%; on h5-HT1AR, 54.7 ± 1.7%. Further, the IC50 (commonly the point on the concentration scale where inhibition reaches its midpoint) in test [3] came out at 80.5 ± 13.7 µM; on h5-HT1AR, 43.3 ± 3.22 µM. The inhibition at 100 µM in test [3] (read-out: Antagonist Effect, 100 µM, % inhibition of control response to 25 nM DPDPE) was 67 ± 0.92%; at h5-HT1AR (setting [6]), 91 ± 3.11%. For the same compound, in test [3] (setting [5]), the inhibition at 150 µM was 100 ± 1.53%. Also, the inhibition at 200 µM on h5-HT1AR (setting [6]) stood at 100.9 ± 0.57%.

As to `Oc1cc(O)cc(Oc2c(O)cc(O)c3c2Oc2c(O)cc4oc5c(Oc6cc(O)cc(O)c6)c(O)cc(O)c5c4c2O3)c1` [PFF-A, phlorofucofuroeckol-A], in test [1], the “Agonist Effect” value is −0.5 ± 0.85%. In addition, in test [2], the “Agonist Effect” value is recorded as 14.7 ± 7.35%. Moreover, in test [3] (setting [5]), the “Antagonist Effect” value is 89.03 ± 0.70% and the inhibition at 150 µM stood at 93.7 ± 6.67%. The same compound showed an IC50 in test [3] of less than 50 µM. The “Agonist Effect” value in test [4] is listed as −15.5 ± 2.55%. Besides, on h5-HT1AR, the “Antagonist Effect” value worked out at 85.55 ± 8.41% and the IC50 came to 17.8 ± 3.42 µM. In addition, on h5-HT1AR (setting [6]), the inhibition at 12.5 µM turned out to be 37.4 ± 2.19%, the inhibition at 25 µM was 68.2 ± 9.89% and the inhibition at 100 µM is 77 ± 11%.
